Assay results from patent publication US7153822B2, “Compositions and methods for modulating connexin hemichannels” (Wyeth, priority 2002, dated 2006).
Square brackets hold non-standard residues; d marks the D form. Peptide text beside a SMILES is read from it. dHyp = O=C(O)[C@H]1C[C@H](O)CN1

Tests used:
connexin hemi-channels = assay: calcein dye uptake in cardiomyocytes under ischemia mimicking solution (Example 4); type: cell-based, rat; settings: 10 nM co-incubation during metabolic stress (stress alone 38% higher), n=6
Description: 1. Cell culture: Briefly, the hearts from 20 neonate rats (age 1–2 days) were excised aseptically. The ventricles were isolated and cut into 4–6 pieces, which are digested in several steps in a Hanks buffered saline with trypsin and DNAse. The cells were then centrifuged and resuspended in MEM with 5% FCS. To eliminate non-muscle cells the suspension was preplated in petri dishes for 30 minutes at 37° C. The cells in suspesion were then seeded onto collagen coated coverslips.
2. Dye-uptake: The cover slips with cardiomyocytes were incubated for 30 minutes with control solution (PBS) containing in mM: Na^+ 152, K^+ 4.2, Cl^− 141.5, PO4^3− 9.5, Ca^2+ 0.9, Mg^2+ 0.5, glucose 6, pH 7.4. or an ischmia mimicking (injury) solution (as control only K^+ 8.2, no glucose, 10 mM deoxy-glucose, pH 6.5), both solutions containing 200 μM calcein. Then the cells were washed for 10 minutes with control solution.
The cover slips were mounted in an open chamber on the stage of an inverted microscope. Ten random fields were chosen and from each field three cells were chosen under conventional light microscopy. Then the cells were excited by 480 nm light and the fluorescence emmision measured at 510 nm, where the emission intensity is a measure of dye-uptake.
The effect of the compound 1 on dye-uptake was investigated under two conditions: […]

[1] = system: rats subjected to myocardial infarction; assay: myocardial infarction by LAD ligation in rats, three weeks of treatment; type: in vivo, rat
Description: Male Lewis rats (300–350 g; M&B, L1. Skendsved, Denmark) were anaesthetized with a neurolept anaesthesic combination (Hypnorm® (fentanyl citrate 0.315 mg/ml and fluanisone 10 mg/ml)+midazolam (5 mg/ml)). Commercial solution of midazolam was diluted 1:2 in distilled water. Three parts of the diluted midazolam is mixed with one part hypnorm®. Anesthesia was induced by s.c. administration of 0.2 ml of this solution per 100 gram rat. When surgical anesthesia was established, an endotracheal cannula is inserted and the animal is artificially ventilated using a Harvard rodent ventilator adjusted to maintain arterial pH at 7.3–7.5 during surgery.
Doses used are shown below in Table I:
Three weeks after ligation of LAD, the rats were anesthetized with an i.p, injection of pentobarbital (50 mg/kg). The animals were placed on a heating blanket in order to maintain body temperature at 37° C. Tracheotomy was performed and the rat was ventilated with oxygen using a Harvard rodent ventilator. The ventilator was adjusted to maintain arterial pH at 7.35–7.45. PE50 catheters were placed in the femoral vein and artery for i.v. administration and arterial pressure measurements, respectively. After insertion of the femoral i.v. catheter, the animal was paralysed by i.v. administration of pancuronium, 1 mg/kg. Anaesthesia and respiratory paralysis is maintained by continuous i.v. infusion of pentobarbital (2.5 mg/kg/h) and pancuronium (1 mg/kg/h) delivered in isotonic saline (50 μl/min). A tygon catheter was inserted into the left ventricle via the right carotid artery for determination of left ventricular end-diastolic pressure. After recording of left ventricular end-diastolic pressure (LVEDP), The hearts are removed from the bodies by cutting the veins and arteries a few mm from the hearts. […]
Using a microscope with a stage that can be moved in predetermined steps, both Masson-trichrome stained slides were examined and the number of points hitting fibrous tissue (blue stained in Masson-trichrome) and normal tissue are counted. […] Infarct size was calculated as % fibrous tissue in the heart.

[2] = system: osteoblastic rat osteosarcoma cell lines; settings: dye transfer after Lucifer Yellow injection; cited from earlier work
in vivo = settings: rat, ip
Description: Compound 1 was delivered by an osmotic minipump (Alzet model 2ML4) that was inserted into the intraperitoneal (i.p.) cavity immediately prior to induction of the myocardial infarction. The pump was filled with vehicle (isotonic saline) or Compound 1 and primed at 37° C. for 24 hours prior to the operation. In order to ensure that the therapeutic plasma concentration was obtained already at the time of infarction, a loading dose of Compound 1 was given s.c. prior to ligation of the LAD.
After administration of the s.c. loading dose of Compound 1 and after i.p. insertion of the osmotic minipump, a left thoracotomy was performed, and the left anterior decending artery was ligated using a 6-0 silk suture. The thorax is closed in layers, and a negative pressure was induced in the pleural cavity to unfold the lungs. Sham-operated animals were subjected to the same procedure without ligation of the LAD. Postoperatively, the animal were allowed to recover in a heated cabinet at 30° C. with 50% oxygen until the next morning. To prevent dehydration during the recovery period, the rat was given 5 ml 5% glucose s.c. immediately after completion of surgery and another 5 ml 5% glucose at 4 p.m. To relieve postoperative pain, the rat was treated with buprenorphine (20 μg/100 g s.c. b.i.d.) and meloxicam (0.1 mg/100 g s.c. once daily) for three days after the myocardial infarction. […] Plasma concentrations of Compound 1 were measured by mass spectrometry following solid phase extraction.

CC(=O)N[C@H](Cc1ccc(O)cc1)C(=O)N1CCC[C@@H]1C(=O)N1C[C@@H](O)C[C@@H]1C(=O)NCC(=O)N[C@H](C)C(=O)NCC(N)=O [Compound 1, Ac-D-Tyr-D-Pro-D-4Hyp-Gly-D-Ala-Gly-NH2] (Ac-[dY][dP][dHyp]G[dA]G-NH2)
calcein dye uptake above control cells (connexin hemi-channels): 5%
left ventricular end-diastolic pressure ([1]; either dose, three weeks): reduced left ventricular end-diastolic pressure
heart weight-body weight ratio ([1]; rats, three weeks after MI): reduced by the two highest doses
reduction of infarct size relative to vehicle treated MI rats ([1]; treatment for three weeks): 20–50%
reversal of hypoxia-induced decrease of calcium wave propagation [2]: completely reversed
level at time molar at 504 h (in vivo; 11 pmol/kg/min): 1.7 ± 0.4 nM
level at time molar at 504 h (in vivo; 110 pmol/kg/min): 5.7 ± 0.4 nM
level at time molar at 504 h (in vivo; 1100 pmol/kg/min): 93.7 ± 12.3 nM
